{
  "source": "patent US8183364B2",
  "about": "“Substituted porphyrins” (Duke University, priority 2004, dated 2012)",
  "key": {"[1]": {"experiment": "Catalysis of O2.^− dismutation by pulse radiolysis", "assay_type": "biochemical", "conditions": "for log kcat for O2^− dismutation: pulse radiolysis, pH 7.8, (22 ± 1) °C, kcat ±30%", "description": "Catalysis of O2.^− dismutation. The catalytic rate constants for the O2.^− dismutation were determined by pulse radiolysis in 0.05 M phosphate buffer (pH 7.8) at (22±1)° C. as previously described (Batinic-Haberle et al, Inorg. Chem. 40:726 (2001)). In the present study 10 mM formate was used as a scavenger for H. atoms and .OH radicals, which leads first to production of CO2.^− radicals and then to O2.^− radicals. This system is known to lead to conversion of all primary radicals of water radiolysis into O2.^−.\nCatalysis of O2.^− dismutation. Pulse radiolysis was used to assess the SOD-like activities of the Mn porphyrins studied. The initial concentration of O2.^− produced by the pulse was about 27 μM, and the concentration of the Mn porphyrin was between 0.5 and 5 μM. The dismutation of O2.^− was followed at 280 nm. The catalytic rate constant was determined from the linear dependence of kobs upon the concentration of the catalyst (Batinic-Haberle et al, Inorg. Chem. 40:726 (2001)). All the new compounds have high O2.^− dismuting ability. The magnitude of the catalysis is due to the interplay of the electron-withdrawing effects of quaternized ortho pyridyl or di-ortho imidazolyl groups, favorable electrostatics, and the solvation of the metal site."}, "[2]": {"experiment": "Oxidative degradation in the presence of ascorbic acid under aerobic conditions", "assay_type": "physicochemical", "conditions": "pH 7.8 (0.05 M tris buffer)", "procedure,_shortened": "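Mn porphyrins exposed to ascorbic acid under aerobic conditions; percentage of porphyrin degraded within 2 hours recorded.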"}},
  "data": [
    {"smiles": "COCCn1cc[n+](CCOC)c1-c1c2nc(c(-c3n(CCOC)cc[n+]3CCOC)c3ccc([n-]3)c(-c3n(CCOC)cc[n+]3CCOC)c3nc(c(-c4n(CCOC)cc[n+]4CCOC)c4ccc1[n-]4)C=C3)C=C2.[Mn+3]", "note": "[MnTDMOE-2-ImP^5+, Mn(III) tetrakis 5,10,15,20-tetrakis[N,N′-di(2-methoxyethyl)imidazolium-2-yl]porphyrin]", "values": [
      {"measurement": "log kcat for O2^− dismutation", "setting": "[1]", "result": 7.59},
      {"measurement": "degradation within 2 hours", "setting": "[2]", "result": 2, "unit": "%"}
    ]},
    {"smiles": "COCC[n+]1ccccc1-c1c2nc(c(-c3cccc[n+]3CCOC)c3ccc([n-]3)c(-c3cccc[n+]3CCOC)c3nc(c(-c4cccc[n+]4CCOC)c4ccc1[n-]4)C=C3)C=C2.[Mn+3]", "note": "[MnTMOE-2-PyP^5+, Mn(III) tetrakis 5,10,15,20-tetrakis[N-(2-methoxyethyl)pyridinium-2-yl]porphyrin]", "values": [
      {"measurement": "log kcat for O2^− dismutation", "setting": "[1]", "result": 8.04},
      {"measurement": "SOD-like activity relative to MnTE-2-PyP^5+", "setting": "[1]; vs MnTE-2-PyP^5+", "result": "two-fold higher"},
      {"measurement": "kcat higher than MnTnBu-2-PyP^5+", "setting": "[1]; vs MnTnBu-2-PyP^5+", "result": 6, "unit": "fold"},
      {"measurement": "degradation within 2 hours", "setting": "[2]", "result": 24, "unit": "%"}
    ]}
  ]
}
